Measurements from the NIST ThermoML archive (doi:10.1021/je8009418).
± gives the expanded uncertainty stated by the source.

Settings: Liquid; for speed of sound: Pulse-echo method; for mass density: Vibrating tube method

CCC(C)(C)O [2-methylbutan-2-ol]
Settings | mass density [kg/m3] | speed of sound [m/s]
292.86 K, 15200 kPa | – | 1290.8 ± 2.3
292.86 K, 30390 kPa | – | 1369.7 ± 2.4
292.86 K, 45590 kPa | – | 1440.9 ± 2.4
292.86 K, 60790 kPa | – | 1506 ± 2.5
292.86 K, 75990 kPa | – | 1566.1 ± 2.5
292.86 K, 91180 kPa | – | 1623.1 ± 2.6
292.86 K, 101320 kPa | – | 1658.5 ± 2.6
292.9 K, 100 kPa | – | 1196.7 ± 1.6
293.15 K, 101.33 kPa | 808.891 ± 0.24 | –
298.15 K, 101.33 kPa | 804.3 ± 0.24 | 1177.8 ± 1.6
298.15 K, 15200 kPa | – | 1274.2 ± 2.4
298.15 K, 30390 kPa | – | 1354.4 ± 2.4
298.15 K, 45590 kPa | – | 1426.3 ± 2.4
298.15 K, 60790 kPa | – | 1491.5 ± 2.5
298.15 K, 75990 kPa | – | 1551.9 ± 2.5
298.15 K, 91180 kPa | – | 1608.7 ± 2.6
298.15 K, 101320 kPa | – | 1644.4 ± 2.6
298.17 K, 100 kPa | – | 1177.8 ± 1.6
303.13 K, 30390 kPa | – | 1339.7 ± 2.4
303.13 K, 45590 kPa | – | 1412.3 ± 2.4
303.13 K, 91180 kPa | – | 1595.6 ± 2.6
303.13 K, 101320 kPa | – | 1631.4 ± 2.6
303.14 K, 15200 kPa | – | 1258.5 ± 2.4
303.14 K, 60790 kPa | – | 1478.1 ± 2.5
303.14 K, 75990 kPa | – | 1538.6 ± 2.5
303.15 K, 100 kPa | – | 1159.8 ± 1.6
303.16 K, 101.33 kPa | 799.66 ± 0.24 | –
308.12 K, 100 kPa | – | 1141.9 ± 1.6
308.12 K, 15200 kPa | – | 1242.6 ± 2.4
308.12 K, 30390 kPa | – | 1324.9 ± 2.4
308.12 K, 45590 kPa | – | 1398 ± 2.4
308.12 K, 60790 kPa | – | 1464.7 ± 2.5
308.12 K, 75990 kPa | – | 1525.6 ± 2.5
308.12 K, 91180 kPa | – | 1582.6 ± 2.6
308.12 K, 101320 kPa | – | 1619 ± 2.6
308.16 K, 101.33 kPa | 794.954 ± 0.24 | –
313.1 K, 100 kPa | – | 1124 ± 1.6
313.1 K, 45590 kPa | – | 1384.1 ± 2.4
313.1 K, 60790 kPa | – | 1451.2 ± 2.5
313.1 K, 75990 kPa | – | 1512.8 ± 2.5
313.1 K, 91180 kPa | – | 1569.9 ± 2.6
313.11 K, 15200 kPa | – | 1226.6 ± 2.4
313.11 K, 30390 kPa | – | 1310.1 ± 2.4
313.11 K, 101320 kPa | – | 1606.2 ± 2.6
313.15 K, 101.33 kPa | 790.176 ± 0.24 | –
318.15 K, 101.33 kPa | 785.312 ± 0.24 | –
318.18 K, 15200 kPa | – | 1210.4 ± 2.4
318.18 K, 60790 kPa | – | 1437.9 ± 2.5
318.18 K, 75990 kPa | – | 1499.8 ± 2.5
318.18 K, 101320 kPa | – | 1593.9 ± 2.6
318.19 K, 30390 kPa | – | 1295.2 ± 2.4
318.19 K, 45590 kPa | – | 1370.1 ± 2.4
318.19 K, 91180 kPa | – | 1557.2 ± 2.6
318.29 K, 100 kPa | – | 1105.3 ± 1.6
